{
  "source": "patent US20210187014A1",
  "about": "(The Regents of the University of Colorado, a body corporate, priority 2018, published 2021)",
  "key": {"C. elegans [1]": {"tested_on": "C. elegans", "experiment": "C. elegans larval growth assay: heat-killed E. coli plus trace live E. coli, worm volume", "assay_type": "in vivo", "details": "for worm growth with dietary supplementation: worms fed heat-killed E. coli plus live entA- or entF- mutant E. coli (Ent-deficient food)", "excerpt": "In one embodiment of the inventive technology, the present inventors created a unique assay to facilitate the identification of microbial metabolites that benefit growth and development of host animals. […] This unique feeding condition was used to search for E. coli mutants that fail to support normal worm growth, potentially due to their inability to provide specific metabolites to benefit host animals.\nE. coli Keio collection screen. Preparation of heat-killed (HK) OP50 plates followed the procedure described previously (Qi et al., 2017). Standard overnight culture of E. coli OP50 grown in LB broth was concentrated to 1/10 vol and was then heat-killed in a 75° C. water bath for 90 min. The 150 µl of the HK-OP50 was spread onto one side of NGM plate. For preparation of bacterial mutant assay plates, E. coli Keio (Baba et al., 2006) mutants were grown overnight at 37° C. in LB medium with […] kanamycin. 0.2 uL of the bacterial culture (OD600) were seeded to the other side of HK OP50 plate. About 300 synchronized L1 worms were added to the screen plate, and cultured at 20° C., then scored for worm size at day 3 and day 4. The entire library was used for the primary screen; each bacterial mutant was screened once. For the secondary screen, 200 candidate mutants were screened (3 replicates) to confirm the slow growth phenotype.\nChemical supplementation of culture plates. For chemical supplementation, each chemical was dissolved in water or DMSO to generate a stock. The stock solution was added to HK OP50 and then spotted onto NGM plates. […] For CaEDTA supplementation (Kiang et al., 2014), 50 ul of CaEDTA (50 ug/ul) was spread onto the center of the NGM plates seeded with OP50, then different volume of the FeCl3[175 ug/ul] […] Bacterial growth analyses. Overnight cultures were diluted to a final OD600=0.01 in 200 μL of NGM liquid medium. Bacteria were grown in 96-well plates with shaking in a Synergy2 plate reader (BioTek) at 37° C. for 17 h. The OD600 was recorded at 20 min intervals.\nAnalysis of larval growth by measuring worm size. Synchronized L1 worms were seeded on the indicated NGM plate and grew to the indicated times. Photos were taken and worms volume in each photo were measured by WormSizer software (Moore et al., 2013)."}, "C. elegans [2]": {"tested_on": "C. elegans", "experiment": "Iron level in live worms by calcein-AM staining (and pftn-2::GFP reporter)", "assay_type": "in vivo", "description": "The present inventors employed the commonly used fluorescent cell-permeable dye, calcein AM, of which emission is quenched by iron binding, and applied it to live worms as previously described to estimate the overall iron level in the host.\nLive imaging of iron in worms was done as previously described (James et al., 2015). Briefly, worms were collected at different culture conditions, then co-cultured in M9 with 0.05 ug/ML calcein-AM (Invitrogen) for 1 h, then washed 3 times in 1 ml M9. Samples were then mounted for fluorescence microscopy.\nFor calcein-AM staining, the original images taken with GFP channel were used to measure the intensity. The value of staining intensity was determined by subtracting the background intensity from the calcein-AM stained intestine."}, "ATP-1": {"target": "T1, ATP-1 (Caenorhabditis elegans, UniProt Q9XXK1)", "T1 construct": "His; made in house; host or cells: E. coli (given only for the three ATP-1 segments)", "T1 sequence (Q9XXK1 whole entry)": "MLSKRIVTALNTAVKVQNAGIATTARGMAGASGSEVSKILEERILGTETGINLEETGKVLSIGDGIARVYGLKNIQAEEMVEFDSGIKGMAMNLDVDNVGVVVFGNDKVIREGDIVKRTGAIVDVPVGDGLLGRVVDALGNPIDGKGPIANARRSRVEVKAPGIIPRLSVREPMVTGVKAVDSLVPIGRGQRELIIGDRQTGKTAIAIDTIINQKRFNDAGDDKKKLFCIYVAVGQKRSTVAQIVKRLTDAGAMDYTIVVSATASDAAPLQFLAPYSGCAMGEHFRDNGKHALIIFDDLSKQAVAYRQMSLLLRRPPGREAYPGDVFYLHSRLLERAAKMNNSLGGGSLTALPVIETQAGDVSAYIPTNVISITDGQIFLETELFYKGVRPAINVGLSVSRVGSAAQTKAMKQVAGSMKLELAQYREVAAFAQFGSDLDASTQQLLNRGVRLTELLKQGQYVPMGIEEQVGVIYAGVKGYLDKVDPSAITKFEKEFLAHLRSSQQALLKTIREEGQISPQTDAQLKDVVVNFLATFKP", "experiment": "Iron-binding assay: 55FeCl3 +/- siderophore in worm lysates, ATP-1 immunoprecipitation", "design": "species or system C. elegans", "method": "The present inventors added radiolabeled iron (55FeCl3) to worm lysates and then immunoprecipitated ATP-1.\nIn vitro binding assay. (a) Ent-biotin pull-down of total proteins: Ent-biotin and streptavidin beads were used to pull down interacting proteins from worm total protein extracts (same method as that in initial screen for Ent-binding proteins). Western blots were performed to detect ATP-1 (Thermo Fisher 43-9800). […] The assay was then quenched with a standard 5×SDS-PAGE_loading buffer (reducing). Proteins were separated by SDS-PAGE and transferred to_nitrocellulose membranes. The membranes were blocked for 1 h with 5% BSA in Trisbuffered saline (TBS) with 0.1% Tween 20 (TBST) at room temperature, followed by incubation for 1 h with horseradish peroxidase streptavidin (Cell Signaling_Technology,3999S) in TBST. After four washes with changes every 15 min in TBST, the_biotinylated proteins were visualized by enhanced chemiluminescence (GE Healthcare,_RPN2232). […] After IP, the amount of 55Fe was determined by liquid scintillation."}, "HEK293T cells": {"tested_on": "HEK293T cells", "experiment": "CAS staining of siderophore level in HEK293T cells", "assay_type": "cell-based, human", "details": "Ent supplemented to the culture medium"}, "[3]": {"tested_on": "murine intestinal epithelial (MODE-K) cells", "experiment": "Cellular iron level by Calcein AM fluorescence in MODE-K cells +/- DFO", "assay_type": "cell-based, mouse", "method": "The present inventors then created a low-iron condition by adding an iron chelator, Deferoxamine (DFO) to the medium (FIG. 18A). […] The assay was also performed using mouse intestinal epithelial (MODE-K) cells."}, "liposomes": {"tested_on": "liposomes", "experiment": "Iron traffic across the lipid bilayer of synthetic liposomes +/- ATPSα", "assay_type": "biochemical", "method": "ATPSα (ATP-1 or ATP5A1) was added to the liposome by an established method. […] The Calcein AM dye was added to liposomes +/− ATPSα and the fluorescence intensity of the liposome was measured; (B) Liposomes were incubated with radiolabel ed Fe^3+ (''FeCl3) and the radioactivity (relative CPM) of the liposome was measured. Method (A) measures iron inside the liposome, since calcein AM is only inside."}, "[4]": {"tested_on": "anemic mouse model (dietary anemia)", "experiment": "Anemic mouse model (dietary anemia), Ent by oral gavage", "assay_type": "in vivo", "details": "female mice on iron-deficient diet", "excerpt": "The inventors fed 3-week old female mice an iron-deficient diet (IDD) (or control diet) for 6 weeks to induce anemia (confirmed by hemoglobin measurement). […] As generally shown in FIGS. 20A-B, feeding IDD caused a drastic reduction of both hemoglobin and iron levels. […] A commercial kit (BioAssay system) was used to obtain hemoglobin level. Under normal conditions, ˜70% of the iron absorbed from the intestine is used to generate hemoglobin, and only a small percent may be stored in the liver or other somatic tissues if iron is in excess. Under anemic conditions, a great percentage of iron that has entered mitochondria (then bound to heme) may be funneled to erythropoiesis. Therefore, it was not unexpected to see little impact of Ent supplementation on liver iron level (iron storage)."}, "germ-free (GF) mice": {"tested_on": "germ-free (GF) mice", "experiment": "Growth of germ-free mice colonized with entF- E. coli, Ent in drinking water", "assay_type": "in vivo", "details": "GF female mice colonized with entF- E. coli, drinking water pH 5.5", "method": "As generally shown in FIG. 23, (A) Five-week old female germ-free (GF) mice were colonized with a single non-pathogenic E. coli (K12) strain, wild type or entF-(Ent-deficient E. coli). Mouse growth (weight gain) was measured for the following 4 weeks. […] Iron level was measured."}},
  "data": [
    {"smiles": "O=C(N[C@H]1COC(=O)[C@@H](NC(=O)c2cccc(O)c2O)COC(=O)[C@@H](NC(=O)c2cccc(O)c2O)COC1=O)c1cccc(O)c1O", "note": "[Ent, enterobactin]", "values": [
      {"measurement": "rescue of worm growth by Ent supplementation", "setting": "C. elegans [1]; RNAi of atp-1 (not ctl-2)", "result": "prevented the rescue of worm growth"},
      {"measurement": "worm growth", "setting": "C. elegans [1]; ferric chloride added to live wild-type E. coli, with heat-killed E. coli", "result": "this growth defect was suppressed"},
      {"measurement": "worm growth with dietary supplementation", "setting": "C. elegans [1]", "result": "completely overcome"},
      {"measurement": "worm growth with dietary supplementation", "setting": "C. elegans [1]; listed as Enterobactin", "result": "recovers the growth defect seen with entF-"},
      {"measurement": "development of worms", "setting": "C. elegans [1]; worms fed only heat-killed bacteria", "result": "did not result in any appreciable effect"},
      {"measurement": "iron level gain with Ent supplementation", "setting": "C. elegans [2]; atp-1 RNAi, entF- mutant bacteria", "result": "eliminated the iron level gain"},
      {"measurement": "iron level in worms (calcein AM and pftn-2::GFP)", "setting": "C. elegans [2]; growth-arrested worms fed heat-killed E. coli only", "result": "such a defect was suppressed"},
      {"measurement": "iron level and growth rate defects", "setting": "C. elegans [2]; iron-deficient condition, worms treated with CaEDTA", "result": "both defects were suppressed"},
      {"measurement": "iron level in worms (calcein AM fluorescence)", "setting": "C. elegans [2]; worms fed entA- or entF- mutant bacteria with heat-killed E. coli", "result": "recovered"},
      {"measurement": "amount of FeCl3 (175 ug/ul) with equivalent effect on calcein-AM fluorescence decrease", "setting": "C. elegans [2]; worms treated with CaEDTA", "result": 10, "unit": "µL"},
      {"measurement": "iron level increase attributed to Ent-mediated iron uptake", "setting": "C. elegans [2]; worms treated with CaEDTA", "result": "≥ 10", "unit": "fold"},
      {"measurement": "increase in 55Fe associated with ATP-1-IP", "setting": "ATP-1; whole worm lysates", "result": "> 10", "unit": "fold"},
      {"measurement": "binding of ATP-1 to 55Fe", "setting": "ATP-1; worm lysates", "result": "dramatically increased"},
      {"measurement": "entry into cells (CAS staining, siderophore level)", "setting": "HEK293T cells", "result": "can enter"},
      {"measurement": "effect on cellular iron level", "setting": "[3]; iron-poor/DFO condition", "result": "more pronounced"},
      {"measurement": "cellular iron level", "setting": "[3]; standard medium", "result": "modestly increased the cellular iron level"},
      {"measurement": "level of iron inside the liposome (Calcein AM)", "setting": "liposomes; FeCl3 +/- Ent 1.5 uM", "result": "clearly boosted"},
      {"measurement": "level of iron associated with the liposome (radioactivity)", "setting": "liposomes; radiolabeled FeCl3 +/- Ent 1.5 uM", "result": "clearly boosted"},
      {"measurement": "iron level in the spleen", "setting": "[4]; oral gavage", "result": "increased in the spleen"},
      {"measurement": "hemoglobin level", "setting": "[4]; oral gavage once every two days for two weeks", "result": "partially but significantly recovered"},
      {"measurement": "growth (weight gain)", "setting": "germ-free (GF) mice", "result": "overcomes growth delay"}
    ]}
  ]
}
